Data on one compound can be found in patent US20230117680A1, “CYCLOPHILIN D INHIBITORS AND USES THEREOF” (The Broad Institute, Inc., priority 2019, published 2023).

One assay deals with T1, CypG (Homo sapiens, UniProt Q13427).
T1 sequence (Q13427 1-754): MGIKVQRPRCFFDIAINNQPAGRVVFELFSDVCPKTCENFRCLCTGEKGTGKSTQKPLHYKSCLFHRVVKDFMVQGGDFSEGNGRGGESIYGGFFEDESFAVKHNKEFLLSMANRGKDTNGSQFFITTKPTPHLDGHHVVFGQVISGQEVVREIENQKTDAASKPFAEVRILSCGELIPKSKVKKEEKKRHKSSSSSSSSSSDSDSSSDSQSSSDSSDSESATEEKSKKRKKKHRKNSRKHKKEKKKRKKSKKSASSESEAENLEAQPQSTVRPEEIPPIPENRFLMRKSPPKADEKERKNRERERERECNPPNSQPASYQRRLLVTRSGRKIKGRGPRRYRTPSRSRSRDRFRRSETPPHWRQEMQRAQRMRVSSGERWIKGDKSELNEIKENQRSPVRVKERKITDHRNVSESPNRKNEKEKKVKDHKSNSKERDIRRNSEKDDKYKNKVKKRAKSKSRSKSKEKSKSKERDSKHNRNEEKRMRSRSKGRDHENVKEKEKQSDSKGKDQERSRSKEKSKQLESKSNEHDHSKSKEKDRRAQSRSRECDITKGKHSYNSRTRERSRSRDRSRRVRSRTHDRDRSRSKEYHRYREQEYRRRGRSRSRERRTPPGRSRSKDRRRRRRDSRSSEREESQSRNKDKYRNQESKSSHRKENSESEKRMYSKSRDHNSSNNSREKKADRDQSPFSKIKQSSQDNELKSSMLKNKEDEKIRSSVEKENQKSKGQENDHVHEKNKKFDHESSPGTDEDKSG
Put plainly: chymotrypsin coupled PPIase assay, CypG inhibition. To be noted: result in words. In kind it is biochemical. As to the method:
(§1) Following the synthesis of the indicated library members, in vitro inhibition (IC50) assays of these hits were conducted to obtain IC50 inhibitory data. For the IC50 assays, a chymotrypsin coupled PPIase assay using Suc-AAPF-AMC as the peptide substrate was used, whereby isomerization of a peptide substrate Suc-AAPF-AMC from the cis to trans conformation allowed for proteolysis via excess a-chymotrypsin, releasing the C-terminal coumarin fluorophore. […] Other non-inhibitor library members were also checked for binding via SPR, but produced the same profile as the prolyl isomerase assay.
(§2) Subsequently, to determine if the compounds could both access the S2 pocket and display CypD specificity, JOMBtrans and compound 49 were screened against the 10 other cyclophilins with reported prolyl isomerase activity. […] Co-crystal structures of JOMBtrans and 49 were solved with CypD. […] Three further H-bonds with the macrocycle's backbone and CypD were observed along with a cation-n interaction. […] The benzyl group on the piperidine ring altered the conformation of the macrocycle to open up two new hydrogen bonding interactions with CypD. […] This improvement in specificity compared to JOMBtrans signified that more CypD specific compounds can be garnered by derivatization into the S2 pocket.

The next assay concerns the target T2, PPWD1 (Homo sapiens, UniProt Q96BP3).
T2 sequence (Q96BP3 1-646): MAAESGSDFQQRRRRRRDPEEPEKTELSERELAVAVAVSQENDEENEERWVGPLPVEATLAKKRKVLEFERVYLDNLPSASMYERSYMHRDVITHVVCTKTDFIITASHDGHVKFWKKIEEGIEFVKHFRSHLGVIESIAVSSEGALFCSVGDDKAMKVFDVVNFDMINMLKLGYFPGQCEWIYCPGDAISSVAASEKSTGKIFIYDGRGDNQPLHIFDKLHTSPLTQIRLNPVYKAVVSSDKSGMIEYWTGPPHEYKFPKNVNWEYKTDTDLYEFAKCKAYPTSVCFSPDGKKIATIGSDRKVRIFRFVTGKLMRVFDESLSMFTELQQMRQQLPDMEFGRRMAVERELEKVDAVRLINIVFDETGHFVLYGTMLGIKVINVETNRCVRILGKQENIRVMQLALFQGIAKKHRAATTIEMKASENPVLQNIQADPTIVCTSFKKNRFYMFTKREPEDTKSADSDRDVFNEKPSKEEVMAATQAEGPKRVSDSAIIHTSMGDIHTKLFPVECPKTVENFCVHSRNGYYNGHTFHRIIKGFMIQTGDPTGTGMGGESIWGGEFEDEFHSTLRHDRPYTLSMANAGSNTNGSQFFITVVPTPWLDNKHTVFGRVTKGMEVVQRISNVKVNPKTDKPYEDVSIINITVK
Put plainly: chymotrypsin coupled PPIase assay, PPWD1 inhibition. In kind it is biochemical. Conditions: result in words. As to the method:
as §1, §2

As to `NCCOCCNC(=O)[C@@H]1CCNC(=O)/C=C/C(=O)N2CCC[C@H](C2)C(=O)N[C@@H](Cc2ccc(C(=O)c3ccccc3)cc2)C(=O)NCc2ccccc2CC(=O)N1` [compound 27], at CypG, the “inhibition of CypG” value is given as “Almost complete ablation of inhibition profiles”. Besides, at PPWD1, the “inhibition of PPWD1” value is given as “Almost complete ablation of inhibition profiles”.
